Broadly, the IC50 is the point on the concentration scale where inhibition reaches its midpoint. As a reminder, the Ki is a measure of affinity in units of concentration, obtained from inhibition or displacement.

Like-named read-outs stand apart in the source and are kept apart here.

For one series, the system named is HDAC. The arrangement: method as in PMID 29733427. Conditions: Figure 2; read-out: IC50 of FDA-approved HDAC inhibitors; cited from earlier work.
Another series has as its target HDAC-6. The settings on record: Figure 4; read-out: Ki, HDAC-6 inhibitor; cited from earlier work.
A further series deals with CK2. Conditions: Figure 3; read-out: CK2 IC50 of previously described dual inhibitors; cited from earlier work.
A further series relates to HDAC1. The arrangement: method as in doi:10.1039/C6RA09717K. Conditions: Figure 3; read-out: HDAC1 IC50 of previously described dual inhibitors; cited from earlier work.
For another series, the system named is two mammalian cell lines. Also on record: method as in doi:10.1039/C6RA09717K. The settings on record: cited from earlier work.
The test system of the next series is HL-60/wt cells. Description: Depolarization of mitochondria, JC-1 assay, FACS. Format: cell-based, human. The settings on record: 24 h.
Another series addresses T1, human recombinant HDAC1 (Homo sapiens, UniProt Q13547).
T1 construct: purchased Enzo Life Sciences, Inc
As to the kind of experiment: HDAC1 inhibition, fluorometric method (Enzo Fluorometric Drug Discovery Assay Kit). Conditions: read-out: Inhibitory activity IC50 on HDAC1. The series is classed as biochemical. As for the experimental part: The inhibitory activities of the synthesized compounds were determined against CK2 and HDAC1 and the IC50 values are collected in Table 1. The activity towards human recombinant HDAC1 was tested using a fluorometric method. CK2 inhibitory activity was determined by a radiometric method, using a short peptide ([…]) as a substrate.
(§1) 15 µL of HDAC1 (0.4 µg/well) or HDAC6 (0.5 µg/well) were incubated at 37 °C for 30 minutes with 10 µL of inhibitor diluted in 5% DMSO and 25 µL of fluorogenic substrate (0.05 µL/well of 5 mM solution). Reactions were stopped with the developer and trichostatin A, diluted in buffer without BSA, and the plate was incubated at 30 °C for 45 min, followed by measuring the fluorescence (Ex. 360 nm, Em. 450 nm, Fluoroskan, Thermo Scientific).

The target in a further series is T2, human recombinant CK2α (Homo sapiens, UniProt P68400).
T2 construct: GST; made in house; host or cells: bacteria
As to the kind of experiment: CK2 inhibition, radiometric method with peptide substrate […]. Format: biochemical. The method, then: The activity towards human recombinant HDAC1 was tested using a fluorometric method. CK2 inhibitory activity was determined by a radiometric method, using a short peptide ([…]) as a substrate.
Recombinant human protein kinase GST-CK2 was produced in bacteria and purified as described elsewhere. […] The reaction buffer contained 20 µM [γ-32P] ATP (specific radioactivity 300–1000 cpm/pmol), 15 mM Mg^2+, 20 mM Tris–HCl pH 7.5, and 6 mM 2-mercaptoethanol. 10 µL of the assay mixture was spotted onto a square (1 cm/1 cm) of Whatman P81 paper and allowed to dry. Each square was immersed in cold 0.5% phosphoric acid, and washed three times during 10 min, allowed to dry and transferred into a vessel containing Opti-Phase liquid (scintillation solution) and radioactivity was quantified using a scintillation counter (MicroBeta, Perkin Elmer) by Cerenkov counting. All experiments were performed in triplicate. IC50 values were calculated using GraphPad Prism (version 4.0) software.

Series [1] has as its system HCT-116 colon carcinoma cells. Description: Cytotoxicity, trypan blue exclusion assay, 24 h. Conditions: Homo sapiens.
Description: (§4) Walter Berger, Institute of Cancer Research, Vienna Medical University. Human embryonal kidney cells of HEK293 line were obtained from cell culture collection of R.E. Kavetsky Institute of Experimental Pathology, Oncology and Radiobiology, National Academy of Sciences of Ukraine (Kyiv, Ukraine).
(§5) Cells were seeded (5 × 10^5/mL for leukemia cells and 1 × 10^5/mL for carcinoma cells) into 24-well tissue culture plates (Greiner Bio-one, Frickenhausen, Germany) and were permitted to adhere and grow for 24 h before the experiment. Short-term (24 h) cytotoxic effect of antitumor drugs was studied under the Evolution 300 Trino microscope (Delta Optical, Nowe Osiny, Poland) after cell staining with trypan blue dye (0.1%).
(§6) Final concentration of DMSO in cell culture was 0.5% or less.
(§7) All experiments were performed in triplicate and repeated three times. Statistical analysis of data was conducted in GraphPad Prism 7.0 Software (GraphPad Software, Inc.) using Student’s t test. Statistical significance was set at P ≤ 0.05. Evaluation of LC50 values of each compound was done by built-in functions of GraphPad Prism (non-linear regression, curve fit, [Inhibitor] vs. normalized response - Variable slope).
Series [2] concerns breast adenocarcinoma cells of MCF-7 line. Description: Cytotoxicity, trypan blue exclusion assay, 24 h. Conditions: Homo sapiens.
Description: as §4, §5, §6, §7
Series [3] has as its system human tumor and pseudonormal cell lines. Description: Cytotoxicity, trypan blue assay, range over the cell lines tested. Format: cell-based. Conditions: 24 h, read-out: LC50 range depending on cell line. The text has this:
(§2) Statistical significance was set at P ≤ 0.05.

The target of the next series is T3, HDAC6 (Homo sapiens, UniProt Q9UBN7).
T3 construct: purchased Enzo Life Sciences, Inc
T3 sequence (Q9UBN7 1-1215): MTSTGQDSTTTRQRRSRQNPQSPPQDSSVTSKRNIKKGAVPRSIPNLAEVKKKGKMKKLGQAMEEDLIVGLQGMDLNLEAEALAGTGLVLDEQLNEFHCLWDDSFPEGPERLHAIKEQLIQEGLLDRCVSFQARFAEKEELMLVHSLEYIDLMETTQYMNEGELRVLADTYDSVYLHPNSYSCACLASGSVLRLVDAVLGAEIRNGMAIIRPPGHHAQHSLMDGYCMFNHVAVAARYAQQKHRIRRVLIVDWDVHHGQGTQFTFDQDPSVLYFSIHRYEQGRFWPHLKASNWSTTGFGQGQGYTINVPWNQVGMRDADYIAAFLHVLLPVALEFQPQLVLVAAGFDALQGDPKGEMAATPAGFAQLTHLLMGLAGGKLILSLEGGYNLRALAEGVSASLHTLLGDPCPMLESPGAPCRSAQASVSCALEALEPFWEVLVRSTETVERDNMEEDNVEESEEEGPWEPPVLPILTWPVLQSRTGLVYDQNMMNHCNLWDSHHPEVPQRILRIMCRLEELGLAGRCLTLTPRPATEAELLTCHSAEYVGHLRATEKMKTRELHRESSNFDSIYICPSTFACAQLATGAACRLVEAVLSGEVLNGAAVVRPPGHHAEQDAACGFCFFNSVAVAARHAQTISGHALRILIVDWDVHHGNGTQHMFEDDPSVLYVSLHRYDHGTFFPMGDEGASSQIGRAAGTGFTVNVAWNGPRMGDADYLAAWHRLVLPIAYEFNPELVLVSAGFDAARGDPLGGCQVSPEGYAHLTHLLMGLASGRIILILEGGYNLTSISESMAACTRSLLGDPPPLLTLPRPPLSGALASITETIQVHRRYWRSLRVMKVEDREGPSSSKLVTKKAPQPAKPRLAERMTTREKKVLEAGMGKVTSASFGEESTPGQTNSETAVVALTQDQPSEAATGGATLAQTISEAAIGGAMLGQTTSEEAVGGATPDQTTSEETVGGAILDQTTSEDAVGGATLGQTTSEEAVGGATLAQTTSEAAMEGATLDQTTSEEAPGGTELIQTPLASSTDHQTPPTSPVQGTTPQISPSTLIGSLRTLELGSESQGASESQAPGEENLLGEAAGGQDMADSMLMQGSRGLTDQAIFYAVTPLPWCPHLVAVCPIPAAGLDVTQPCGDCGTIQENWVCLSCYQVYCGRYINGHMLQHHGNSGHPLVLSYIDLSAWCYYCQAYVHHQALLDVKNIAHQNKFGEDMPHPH
Description: HDAC6 inhibition, fluorometric method (Enzo Fluorometric Drug Discovery Assay Kit). The series is classed as biochemical. The settings on record: read-out: Inhibitory activity IC50 on HDAC6. The method, then: For this reason, we analyzed the activity of 15 and 19, together with other compounds from the alkyl and triazole series in HDAC6, tested using a fluorometric method (Table 1).
as §1

A further series concerns Jurkat T-leukemia cells. Description: Cytotoxicity, trypan blue exclusion assay, 24 h. The settings on record: Homo sapiens.
The nature of series [4]: Cytotoxicity, trypan blue exclusion assay, 24 h (pseudonormal cells). Conditions: human, HEK293 embryonic kidney cells (pseudonormal).
Description: as §4, §5, §6, §7
Series [5] relates to leukemia cells of HL-60 line. As to the kind of experiment: Cytotoxicity, trypan blue exclusion assay, 24 h. Format: cell-based. Conditions: Homo sapiens.
Text: (§3) Taking into consideration the high abundance of CK2 kinase in leukemia and lymphomas, the ability of selected CK2-HDAC dual inhibitors to circumvent MDR was investigated in human leukemia cells of HL-60 line and its doxorubicin-resistant (HL-60/adr, MRP-1 overexpression) and vincristine-resistant (HL-60/vinc, P-gp overexpression) sublines.
as §2

Series [6] deals with HL-60/adr (doxorubicin-resistant, MRP-1 overexpression). As to the kind of experiment: Cytotoxicity, trypan blue exclusion assay, 24 h. Conditions: Homo sapiens, HL60/ADR. The series is classed as cell-based.
Text: as §3, §2

For series [7], the system named is HL-60/vinc (vincristine-resistant, P-gp overexpression). Description: Cytotoxicity, trypan blue exclusion assay, 24 h. The series is classed as cell-based. Conditions: Homo sapiens, HL60/vinc.
Text: as §3, §2

For the next series, the system named is HL-60/adr line. Also on record: method as in PMID 17904109. The settings on record: cited from earlier work.
A further series deals with HL-60/vinc line. The arrangement: method as in PMID 17904109. Conditions: cited from earlier work.

T2 sequence (P68400 whole entry): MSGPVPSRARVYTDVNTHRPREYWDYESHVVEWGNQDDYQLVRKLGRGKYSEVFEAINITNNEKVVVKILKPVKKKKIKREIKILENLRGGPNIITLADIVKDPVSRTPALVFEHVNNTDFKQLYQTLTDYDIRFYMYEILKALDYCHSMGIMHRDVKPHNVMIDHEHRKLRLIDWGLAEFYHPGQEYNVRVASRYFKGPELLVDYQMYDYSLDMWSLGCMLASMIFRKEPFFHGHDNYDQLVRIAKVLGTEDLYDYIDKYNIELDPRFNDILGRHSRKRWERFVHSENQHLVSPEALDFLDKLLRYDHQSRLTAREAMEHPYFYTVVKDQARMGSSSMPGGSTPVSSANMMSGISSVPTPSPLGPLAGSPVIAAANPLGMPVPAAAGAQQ
T1 sequence (Q13547 whole entry): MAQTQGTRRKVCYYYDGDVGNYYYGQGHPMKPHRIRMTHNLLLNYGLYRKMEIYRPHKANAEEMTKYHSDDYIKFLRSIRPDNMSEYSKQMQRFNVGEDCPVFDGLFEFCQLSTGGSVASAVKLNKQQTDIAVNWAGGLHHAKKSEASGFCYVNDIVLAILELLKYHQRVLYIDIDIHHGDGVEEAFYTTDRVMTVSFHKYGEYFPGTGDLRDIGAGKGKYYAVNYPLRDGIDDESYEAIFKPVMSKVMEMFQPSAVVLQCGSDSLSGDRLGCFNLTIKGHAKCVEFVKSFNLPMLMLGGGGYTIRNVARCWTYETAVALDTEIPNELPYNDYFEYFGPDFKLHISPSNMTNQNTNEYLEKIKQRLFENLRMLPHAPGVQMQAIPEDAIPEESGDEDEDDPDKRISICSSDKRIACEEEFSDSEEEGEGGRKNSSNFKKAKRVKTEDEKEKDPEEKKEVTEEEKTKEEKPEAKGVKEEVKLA
Description for Jurkat T-leukemia cells: as §4, §5, §6, §7

For the molecule `Cc1[nH]c2ccccc2c1CCNCc1ccc(/C=C/C(=O)NO)cc1` [Panobinostat], the half-inhibitory concentration (IC50) in the series with HDAC was 0.005 to 0.02 µM.
For `CN1C(=O)C2Cc3c(c4ccccc4n3Cc3ccc(C(=O)NO)cc3)C(C2)C1=O` (stereo not shown) [Marbostat-100], the inhibitory constant (Ki) at HDAC-6 was 0.0007 µM.
With `C/C=C1\NC(=O)[C@H]2CSSCC/C=C/[C@H](CC(=O)N[C@H](C(C)C)C(=O)N2)OC(=O)[C@H](C(C)C)NC1=O` [Romidepsin], the half-maximal inhibitory concentration (IC50) in the series on HDAC was 0.036 µM.
On to `O=C(CCn1cc(CCn2nnc3c(Br)c(Br)c(Br)c(Br)c32)nn1)NO` [Compound 1], for which the values for the IC50 with CK2 and in the series with HDAC1 were 5.4 µM and 5 µM, respectively.
In the case of `O=C(CCn1cc(CCn2nc3c(Br)c(Br)c(Br)c(Br)c3n2)nn1)NO` [Compound 2], the 50% inhibitory concentration (IC50) in the series with CK2 is 50 µM; in the series with HDAC1, 2.2 µM. Moreover, in the series with two mammalian cell lines, the “cytotoxic activity LC50” value is “low micromolar”.
In the case of `CN(C)c1nc2c(Br)c(Br)c(Br)c(Br)c2n1CCCCCCC(=O)NO` [Compound 11c, N-Hydroxy-7-(4,5,6,7-tetrabromo-2-(dimethylamino)-1H-benzo[d]imidazol-1-yl)heptanamide], the depolarization of mitochondria in the series with HL-60/wt cells (10 µM) came out at 34.73%; with HL-60/wt cells (30 µM), 49.98%. Moreover, the IC50 on human recombinant HDAC1 turned out to be 1.77 µM; on human recombinant CK2α (radiometric method, 20 µM ATP, read-out: Inhibitory activity IC50 on CK2) it was 16.6 µM; on HDAC6, 1.13 µM. Also, the “fold difference in the CK2 inhibitory activity compared to 11b” value at human recombinant CK2α (compared to 11b) is reported as 4.5 fold. The CC50 was 1.9 ± 0.24 µM in [1] (HCT-116, 24 h, read-out: LC50 Values of Compounds for Cell Line, HCT-116); 3.1 µM in [1] (HCT-116, read-out: LC50 values of compounds for cell line, HCT-116); 9.97 ± 0.99 µM in series [2] (MCF7, 24 h, read-out: LC50 Values of Compounds for Cell Line, MCF-7); 9.02 µM in series [2] (MCF7, read-out: LC50 values of compounds for cell line, MCF-7); 1.9 to 13.6 µM in [3]; 9.47 ± 1.1 µM in the series with Jurkat T-leukemia cells (24 h, read-out: LC50 Values of Compounds for Cell Line, Jurkat). Also, the CC50 with Jurkat T-leukemia cells (read-out: LC50 values of compounds for cell line, Jurkat) was determined as 5.63 µM; in series [5] (Table 2, trypan blue, 24 h, M ± SD, read-out: LC50 Values of Compounds for Cell Line, HL-60) it was 6.59 ± 0.96 µM; in [5] (supplement Table 4S, M±SD, read-out: LC50 values of compounds for cell line, HL-60), 4.69 µM; in [6] (Table 2, trypan blue, 24 h, M ± SD, read-out: LC50 Values of Compounds for Cell Line, HL-60/adr), 10.6 ± 1.53 µM; in [6] (supplement Table 4S, M±SD, read-out: LC50 values of compounds for cell line, HL-60/adr) it was 8.4 µM; in [7] (Table 2, trypan blue, 24 h, M ± SD, read-out: LC50 Values of Compounds for Cell Line, HL-60/vinc), 12.1 ± 3.27 µM. Besides, the CC50 in series [7] (supplement Table 4S, M±SD, read-out: LC50 values of compounds for cell line, HL-60/vinc) came to 2.49 µM. Further, the CC50 at 24 h is 13.6 ± 0.8 µM in [4] (LC50 Values of Compounds for Cell Line, HEK293, Table 2, trypan blue, 24 h, M ± SD) and 8.41 µM in series [4] (LC50 values of compounds for cell line, HEK293, supplement Table 4S, M±SD).
With `COc1cccc2c1C(=O)c1c(O)c3c(c(O)c1C2=O)C[C@@](O)(C(=O)CO)C[C@@H]3O[C@H]1C[C@H](N)[C@H](O)[C@H](C)O1` [doxorubicin], the “resistance of the MDR cell model to the drug” value in the series with HL-60/adr line is 80 fold; with HL-60/vinc line, 140 fold.
